Data reported in patent US20250162989A1, “USP30 INHIBITORS AND USES THEREOF” (Vincere Biosciences, Inc., priority 2021, published 2025).

Key:
USP30 = USP30 (Homo sapiens (Human), UniProt Q70CQ3); experiment: Dundee MALDI-TOF mass spectrometry assay (K48-linked diubiquitin cleavage); type: biochemical; conditions: USP30 25 ng/μl, K48-linked diubiquitin 5.6 μM, read-out: USP30 IC50 μM (avg)
Experimental: USP30 was diluted in a buffer containing 40 mM Tris, 0.01% BSA, 1 mM DTT and K48 in 40 mM Tris, 0.01% BSA.
The compounds were pre-incubated with the USP30 for 5 mins at room temp before the K48 dimer addition. The assay mixture was then incubated for 45 mins at room temp. The assay was stopped by the addition of TFA to a final concentration of 2% (v/v).
Acidified samples of the DUB assays were mixed with 0.5 mM 15N-ubiquitin and then with one part of 2% (v/v) TFA and one part of 2.5 DHAP matrix solution (7.6 mg of 2.5 DHAP in […] ethanol and […] of an aqueous 12 mg ml 1 diammonium hydrogen citrate).

[1] = biological target: recombinant USP30 (amino acids 57-517 of the human sequence) (Homo sapiens (Human), UniProt Q70CQ3); experiment: In vitro USP30 biochemical assay (Ubiquitin-Rhodamine substrate); conditions: fluorescence
Chain of recombinant USP30 (amino acids 57-517 of the human sequence) (Q70CQ3 57-517): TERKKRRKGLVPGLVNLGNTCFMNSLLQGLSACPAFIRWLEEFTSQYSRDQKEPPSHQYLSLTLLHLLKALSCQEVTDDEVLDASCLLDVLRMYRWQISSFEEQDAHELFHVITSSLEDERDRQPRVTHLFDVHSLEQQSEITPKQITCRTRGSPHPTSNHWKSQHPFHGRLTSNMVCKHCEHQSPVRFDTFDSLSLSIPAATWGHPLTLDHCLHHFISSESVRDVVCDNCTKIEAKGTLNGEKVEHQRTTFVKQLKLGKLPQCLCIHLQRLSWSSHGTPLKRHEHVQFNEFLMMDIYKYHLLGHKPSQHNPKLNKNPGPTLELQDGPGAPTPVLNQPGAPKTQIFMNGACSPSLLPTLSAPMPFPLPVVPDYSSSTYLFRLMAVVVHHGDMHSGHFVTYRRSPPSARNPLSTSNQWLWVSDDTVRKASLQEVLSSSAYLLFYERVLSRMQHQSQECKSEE
Experimental: In vitro biochemical assay to establish the potency of compounds for USP30 inhibition: a 384-well plate assay using a fluorophore tagged substrate of USP30 was used for in vitro screening of compounds. Each compound was tested at
10 different concentrations (0.5 to 10,000 nM) in duplicate wells. […] Data were analyzed using Graph Pad Prism software with a four-parameter (floating slope) fit to log concentration data to determine IC50s.

[2] = 1.5 nM recombinant USP30, 25 nM Ubiquitin-Rhodamine
[3] = […] recombinant USP30, 25 nM Ubiquitin-Rhodamine

Chain of USP30 (Q70CQ3 whole entry): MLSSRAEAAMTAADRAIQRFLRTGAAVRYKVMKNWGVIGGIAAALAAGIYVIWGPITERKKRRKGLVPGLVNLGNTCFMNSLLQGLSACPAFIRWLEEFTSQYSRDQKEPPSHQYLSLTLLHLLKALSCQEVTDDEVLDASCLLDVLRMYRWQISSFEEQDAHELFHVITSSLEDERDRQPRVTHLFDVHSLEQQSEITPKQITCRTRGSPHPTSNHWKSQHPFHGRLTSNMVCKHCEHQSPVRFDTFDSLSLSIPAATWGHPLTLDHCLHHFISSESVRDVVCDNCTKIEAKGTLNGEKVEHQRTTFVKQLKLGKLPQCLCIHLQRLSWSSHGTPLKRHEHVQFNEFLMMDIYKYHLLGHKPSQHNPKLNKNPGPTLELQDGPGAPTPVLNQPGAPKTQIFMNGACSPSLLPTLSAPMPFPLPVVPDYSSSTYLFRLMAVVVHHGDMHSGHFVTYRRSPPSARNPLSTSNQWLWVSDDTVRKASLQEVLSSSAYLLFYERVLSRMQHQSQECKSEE

Row | Compound | IC50 (USP30) | IC50 [1, 2] | IC50 [1, 3]
1 | N#CN1CC[C@@H](NC(=O)[C@H](Cc2ccccc2)NC(=O)c2ccc(F)cc2)C1 [Compound I-125] | 0.05 to 1 µM | 0.05 to 1 µM | –
2 | COc1cc(NC(=O)[C@H](CC2CCN(C)CC2)NC(=O)c2ccc(F)cc2)ccc1S(=O)(=O)NC1CCOCC1 [Compound I-143] | 0.05 to 1 µM | 0.05 to 1 µM | –
3 | CC(CO)(CO)NS(=O)(=O)c1ccc(NC(=O)[C@H](Cc2ccccc2)NC(=O)c2ccc(F)cc2)cn1 [Compound I-148] | 0.05 to 1 µM | 0.05 to 1 µM | –
4 | CC(=O)N1CCC(C[C@H](NC(=O)c2ccc(F)cc2)C(=O)Nc2ccc(S(=O)(=O)NC(C)(C)C)nc2)CC1 [Compound I-156] | < 0.05 µM | – | < 0.05 µM
5 | O=C(N[C@@H](CC1CCNCC1)C(=O)Nc1ccc(S(=O)(=O)NC2CCOCC2)cc1)c1ccc(F)cc1 [Compound I-157] | 0.05 to 1 µM | 0.05 to 1 µM | –
6 | CN1CCC(C[C@H](NC(=O)c2ccc(F)cc2)C(=O)Nc2ccc(S(=O)(=O)NC(C)(C)C(F)(F)F)cc2)CC1 [Compound I-158] | < 0.05 µM | 0.05 to 1 µM | –
7 | COc1cc(NC(=O)[C@H](CC2CCNCC2)NC(=O)c2ccc(F)cc2)ccc1S(=O)(=O)NC(C)(C)CO [Compound I-159] | 0.05 to 1 µM | 0.05 to 1 µM | –
8 | COc1cc(NC(=O)[C@H](CC2CCN(C(C)=O)CC2)NC(=O)c2ccc(F)cc2)ccc1S(=O)(=O)NC(C)(C)C [Compound I-160] | < 0.05 µM | – | < 0.05 µM
9 | CC(C)C(=O)N1CCC(C[C@H](NC(=O)c2ccc(F)cc2)C(=O)Nc2ccc(S(=O)(=O)NC(C)(C)C)cc2)CC1 [Compound I-161] | < 0.05 µM | – | < 0.05 µM
10 | CC(C)(C)NS(=O)(=O)c1ccc(NC(=O)[C@H](Cc2ccccc2)NC(=O)c2ccc(F)nc2)cc1 [Compound I-163] | < 0.05 µM | – | < 0.05 µM
11 | CN1CCC(C[C@H](NC(=O)c2ccc(F)cc2)C(=O)Nc2ccc(S(=O)(=O)NC3CCOCC3)cc2)CC1 [Compound I-164] | < 0.05 µM | 0.05 to 1 µM | –
12 | CC(C)(C)NS(=O)(=O)c1ccc(NC(=O)[C@H](CC2CCN(C#N)CC2)NC(=O)c2ccc(F)cc2)cc1 [Compound I-165] | < 0.05 µM | – | < 0.05 µM
13 | CC(C)(C)NS(=O)(=O)c1ccc(NC(=O)[C@H](Cc2ccccc2)NC(=O)c2ccon2)cc1 [Compound I-167] | 0.05 to 1 µM | 0.05 to 1 µM | –
14 | CC(C)(C)NS(=O)(=O)c1ccc(NC(=O)[C@H](Cc2ccccc2)NC(=O)c2nccs2)cc1 [Compound I-168] | < 0.05 µM | 0.05 to 1 µM | –
15 | CNCCN1CCC(C[C@H](NC(=O)c2ccc(F)cc2)C(=O)Nc2ccc(S(=O)(=O)NC(C)(C)C)cc2)CC1 [Compound I-171] | < 0.05 µM | – | < 0.05 µM
16 | CC(=O)CN1CCC(C[C@H](NC(=O)c2ccc(F)cc2)C(=O)Nc2ccc(S(=O)(=O)NC(C)(C)C)cc2)CC1 [Compound I-172] | < 0.05 µM | 0.05 to 1 µM | –
17 | COCCN1CCC(C[C@H](NC(=O)c2ccc(F)cc2)C(=O)Nc2ccc(S(=O)(=O)NC(C)(C)C)cc2)CC1 [Compound I-173] | < 0.05 µM | – | < 0.05 µM

Row | Compound | IC50 (USP30) | IC50 [1, 2] | IC50 [1, 3]
18 | CC(C)(C)NS(=O)(=O)c1ccc(NC(=O)[C@H](Cc2ccccc2)NC(=O)C2CCOCC2)cc1 [Compound I-174] | 0.05 to 1 µM | 0.05 to 1 µM | –
19 | CC(C)(C)NS(=O)(=O)c1ccc(NC(=O)[C@H](CC2CCOCC2)NC(=O)c2ccc(F)cn2)cc1 [Compound I-177] | < 0.05 µM | – | < 0.05 µM
20 | CC(C)(C)NS(=O)(=O)c1cccc2c(NC(=O)[C@H](Cc3ccccc3)NC(=O)c3ccc(F)nc3)cccc12 [Compound I-182] | < 0.05 µM | – | < 0.05 µM
21 | CN1CCC(C[C@H](NC(=O)c2ccc(F)cn2)C(=O)Nc2ccc(S(=O)(=O)NC(C)(C)C)cc2)CC1 [Compound I-185, (S)—N-(1-((4-(N-(tert-butyl)sulfamoyl)phenyl)amino)-3-(1-methylpiperidin-4-yl)-1-oxopropan-2-yl)-5-fluoropicolinamide] | < 0.05 µM | – | < 0.05 µM
22 | CC(C)(C)NS(=O)(=O)c1ccc(NC(=O)[C@H](CC2CCNCC2)NC(=O)c2ccc(F)nc2)cc1 [Compound I-186] | 0.05 to 1 µM | 0.05 to 1 µM | –
23 | CC(C)(C)NS(=O)(=O)c1ccc(NC(=O)[C@H](CC2CCOCC2)NC(=O)c2ccc(F)nc2)cc1 [Compound I-196] | < 0.05 µM | – | < 0.05 µM
24 | CC(C)(NS(=O)(=O)c1ccc(NC(=O)[C@H](CC2CCNCC2)NC(=O)c2ccc(F)cn2)cc1)C(F)(F)F [Compound I-199] | 0.05 to 1 µM | 0.05 to 1 µM | –
25 | O=C(N[C@@H](Cc1ccccc1)C(=O)Nc1ccc(S(=O)(=O)NC2(CF)CC2)cc1)c1ccc(F)cc1 [Compound I-200] | < 0.05 µM | 0.05 to 1 µM | –
26 | CC(C)(NS(=O)(=O)c1ccc(NC(=O)[C@H](Cc2ccccc2)NC(=O)c2ccc(F)cn2)cc1)C(F)(F)F [Compound I-201] | < 0.05 µM | 0.05 to 1 µM | –
27 | CN1CCC(C[C@H](NC(=O)c2ccc(F)cn2)C(=O)Nc2ccc(S(=O)(=O)NC(C)(C)C(F)(F)F)cc2)CC1 [Compound I-202] | < 0.05 µM | – | < 0.05 µM
28 | Cn1nccc1CNS(=O)(=O)c1ccc(NC(=O)[C@H](Cc2ccccc2)NC(=O)c2ccc(F)cc2)cc1 [Compound I-205] | 0.05 to 1 µM | 0.05 to 1 µM | –
29 | CC(C)(C)NS(=O)(=O)c1ccc(NC(=O)[C@H](CC2CCN(CCC(F)(F)F)CC2)NC(=O)c2ccc(F)cc2)cn1 [Compound I-208] | 0.05 to 1 µM | 0.05 to 1 µM | –
30 | COc1cc(NC(=O)[C@H](CC2CCNCC2)NC(=O)c2ccc(F)cc2)ccc1S(=O)(=O)NC(C)(C)CF [Compound I-209] | 0.05 to 1 µM | 0.05 to 1 µM | –
31 | Cn1cncc1CNS(=O)(=O)c1ccc(NC(=O)[C@H](Cc2ccccc2)NC(=O)c2ccc(F)cc2)cc1 [Compound I-227] | 0.05 to 1 µM | 0.05 to 1 µM | –
32 | CC(=O)O[C@@H]1C[C@@H](C(=O)Nc2ccc(S(=O)(=O)NC(C)(C)C)cc2)N(C(=O)c2ccc(F)cc2)C1 [Compound I-266] | 0.05 to 1 µM | 0.05 to 1 µM | –
33 | COc1cc(NC(=O)[C@@H]2C[C@@H](c3ccccc3)CN2C(=O)c2ccc(F)cc2)ccc1S(=O)(=O)NC(C)(C)CO [Compound I-272] | 0.05 to 1 µM | 0.05 to 1 µM | –
34 | Cn1ccc(N2CCC(C[C@H](NC(=O)c3ccc(F)cc3)C(=O)Nc3ccc(S(=O)(=O)NC(C)(C)C)nc3)CC2)n1 [Compound I-293] | < 0.05 µM | – | < 0.05 µM

Next, values leading:

Row | IC50 (USP30) | IC50 [1, 2] | IC50 [1, 3] | Compound
35 | < 0.05 µM | 0.05 to 1 µM | – | CC(C)(CF)NS(=O)(=O)c1ccc(NC(=O)[C@H](CC2CCNCC2)NC(=O)c2ccc(F)cc2)cc1 [Compound I-122]
36 | < 0.05 µM | 0.05 to 1 µM | – | O=C(N[C@@H](CC1CCOCC1)C(=O)Nc1ccc(S(=O)(=O)NC2CCOCC2)cc1)c1ccc(F)cc1 [Compound I-128]
37 | < 0.05 µM | 0.05 to 1 µM | – | C[C@@H](CO)NS(=O)(=O)c1ccc(NC(=O)[C@H](Cc2ccccc2)NC(=O)c2ccc(F)cc2)cc1 [Compound I-129]
38 | < 0.05 µM | – | < 0.05 µM | C[C@H](CO)NS(=O)(=O)c1ccc(NC(=O)[C@H](Cc2ccccc2)NC(=O)c2ccc(F)cc2)cc1 [Compound I-130]
39 | < 0.05 µM | – | < 0.05 µM | O=C(N[C@@H](Cc1ccccc1)C(=O)Nc1ccc(S(=O)(=O)NC2(CO)CC2)cc1)c1ccc(F)cc1 [Compound I-131]
40 | < 0.05 µM | 0.05 to 1 µM | – | CC(CO)(CO)NS(=O)(=O)c1ccc(NC(=O)[C@H](Cc2ccccc2)NC(=O)c2ccc(F)cc2)cc1 [Compound I-132]
41 | < 0.05 µM | 0.05 to 1 µM | – | O=C(N[C@@H](CC1CCOCC1)C(=O)Nc1ccc(S(=O)(=O)NC2CCOCC2)nc1)c1ccc(F)cc1 [Compound I-133]
42 | < 0.05 µM | 0.05 to 1 µM | – | COc1cc(NC(=O)[C@H](Cc2ccccc2)NC(=O)c2ccc(F)cc2)ccc1S(=O)(=O)N[C@@H](C)CO [Compound I-136]
43 | < 0.05 µM | 0.05 to 1 µM | – | COc1cc(NC(=O)[C@H](Cc2ccccc2)NC(=O)c2ccc(F)cc2)ccc1S(=O)(=O)N[C@H](C)CO [Compound I-137]
44 | < 0.05 µM | 0.05 to 1 µM | – | COc1cc(NC(=O)[C@H](Cc2ccccc2)NC(=O)c2ccc(F)cc2)ccc1S(=O)(=O)NC(C)(CO)CO [Compound I-138]
45 | < 0.05 µM | 0.05 to 1 µM | – | COc1cc(NC(=O)[C@H](Cc2ccccc2)NC(=O)c2ccc(F)cc2)ccc1S(=O)(=O)NC1(CO)CC1 [Compound I-141]
46 | < 0.05 µM | – | < 0.05 µM | CC(C)(C)NS(=O)(=O)c1ccc(NC(=O)C(CC2CCN(C=O)CC2)NC(=O)c2ccc(F)cc2)cc1 (stereo not shown) [Compound I-145]
47 | < 0.05 µM | 0.05 to 1 µM | – | C[C@@H](CO)NS(=O)(=O)c1ccc(NC(=O)[C@H](Cc2ccccc2)NC(=O)c2ccc(F)cc2)cn1 [Compound I-149]
48 | < 0.05 µM | 0.05 to 1 µM | – | O=C(N[C@@H](Cc1ccccc1)C(=O)Nc1ccc(S(=O)(=O)NC2(CO)CC2)nc1)c1ccc(F)cc1 [Compound I-150]
49 | < 0.05 µM | 0.05 to 1 µM | – | C[C@H](CO)NS(=O)(=O)c1ccc(NC(=O)[C@H](Cc2ccccc2)NC(=O)c2ccc(F)cc2)cn1 [Compound I-151]
50 | < 0.05 µM | 0.05 to 1 µM | – | COc1cc(NC(=O)[C@H](CC2CCNCC2)NC(=O)c2ccc(F)cc2)ccc1S(=O)(=O)NC(C)(C)C [Compound I-155]
